# Test results as given in publication PMC9763021, “Comprehensive Assessment of Biomolecular Interactions of Morpholine-Based Mixed Ligand Cu(II) and Zn(II) Complexes of 2,2′-Bipyridine as Potential Anticancer and SARS-CoV-2 Agents: A Synergistic Experimental and Structure-Based Virtual Screening” (Bioinorganic Chemistry and Applications, 2022).
# Tests used:
# Shigella flexneri = assay: Agar disc diffusion, strain E; type: cell-based; parameters: (inhibition %): concentration or dose not given beside the values; settings: for diameter of the clear zone inhibition: control = 6 mm
# Experimental: In-vitro antimicrobial properties were evaluated for all samples by the agar disc diffusion method towards different fungal and bacterial strains. Additionally, the reported inhibition zone values were comparatively analyzed with the standard antifungal drugs ketoconazole and amphotericin B as well as the standard antibiotic medications streptomycin and amikacin.
# The current research has a curious focus on the in vitro antimicrobial properties of biological systems because these studies are crucial for developing effective antibacterial and antifungal medications. […] It can also be spelled out based on the chelation theory proposed by Overtone and Tweedy. Chelation theory points out that the partial exchanging of the positive charge of the metal center with donor moieties, and overlap of the ligand orbitals will reduce the greater degree of the metal ion's polarity, which ultimately rises the delocalization of π and d electrons over the full chelated ring system. By raising the size of the metal ion due to the retarding of polarization, chelation may also enhance the complexes' lipophilic characteristics, which further stimulate the lipid membrane permeability and break down the bacteria' enzymes responsible for cell wall formation, therefore slowing down the regular cell processes. By preventing the production of cell walls/proteins/DNA, including by obstructing folate metabolism and the cytoplasmic membrane, antimicrobial drugs frequently either fully eliminate microbes or only prevent their cell growth. Additionally, the samples' mode of action may be employed in disrupting the cell's respiration process by forming an H-bond during the morpholine-fused iminic group coordinated with the active metal center of its components, inhibiting proliferation of the cell. […] The difference in the antimicrobial efficacy of some of the compounds towards various microorganisms influences on the impermeability of the cells of the germs or the diversity of ribosomes of the microbes. The % of the inhibition of all substances is estimated from (45) (Table 9).
# (A, B, C, D, and E are represented as gram negative bacteria species Escherichia coli, Salmonella enteric serovar typhi, Salmonella enteric serovar typhi, Pseudomonas aeruginosa, and Shigella flexneri, respectively. F & G are denoted as gram positive bacteria species Staphylococcus aureus and Bacillus cereus. H, I, and J are represented as fungal strains Aspergillus niger, Candida albicans, and Mucor indicus. Standard drugs for bacterial strains: Amikacin & Streptomycin Standard drugs for fungal strains: Ketoconazole and Amphotericin B. [Control (DMSO) = 6 mm].(44) Inhibition %=T–C/T×100, where T and C are represented as the diameter of microbial growth of the sample plates and the control plate (6 mm), respectively. Error limits ±2.5–5.0% (P ≤ 0.05).
# BSA = BSA (Bos taurus, UniProt P02769); assay: BSA fluorescence quenching (emission titration); type: binding, bovine; settings: values in brackets; for KSV (BSA), SV method I: 350 nm; for P (BSA), ratio of fluorescence quantum efficiency: F/F0 vs 1/[BSA]; for Kq (BSA), SV method I: Kq=KSV/τ0; for ∆Gb° (BSA), SV method II: –RT lnKass
# Experimental: The experiment was performed in the 200 to 800 nm region. This is supporting evidence for the complexes' manner of deoxyribonucleic acid binding. When DNA (200 μM) was present or absent, we carefully monitored the intensity variations between 610 nm and 510 nm during the initial emission and excitation of EB [6, 28, 37]. Similarly, emission titrations for BSA interaction with different concentrations between 2.5 μM and 25 μM for all substances were conducted in a Tris-HCl buffer solution (pH: 7.4) between the regions of 300 nm and 400 nm.
# K SV is denoted as Stern–Volmer binding constant; Kass is represented as association binding constant; Kapp is represented as apparent binding constant, Kapp=KEB[EB]/[compound]=500/[compound], KEB = 10^7 M^−1 at the concentration of 50 μM EB; Gibb's free energy change ΔGb°=–RT lnKass; Kq is represented as bimolecular quenching rate constant/Stern–Volmer dynamic quenching rate constant (Kq=KSV/τ0), average life time of the biomolecular quenching in the absence of a quencher (τ0) = 10^−8 S; Gibb's free energy change ΔGb°=–RT lnKass (where R = […], T = 298 K); KLB is represented as Lineweaver–Burk (LWB) binding constant; KSA is represented as Scatchard association binding constant; Kapp is denoted as apparent binding constant; n is the number of binding sites; P is a ratio of fluorescence quantum efficiency of DNA bound and free complex (P=ɸb/ɸf), which is obtained as intercept from plot F/F0 vs. 1/[DNA], Error limit is ± 2.5% (P < 0.025).(12) Fcorr=Fobs×e^Aex×dex+Aem×dem/2=Fobs×e^Aex+Aem/2, where Fcorr and Fobs are represented as the IFE-corrected fluorescence and observed (uncorrected) emission intensities, respectively. dex and dem are denoted as the cuvette path lengths in the excitation and emission directions, respectively. Aex and Aem are represented as the change in absorbance at the excitation and fluorescence wavelengths, respectively.(13) F0 /F=1+KSVQ=1+Kq τ0, where [Q] is represented as the sample concentration, the emission intensities F0 and F of DNA/BSA in the absence and presence of the quencher (sample), respectively.(14) F0 /F−1=F0−F/F=KSVQlogF0−F/F=logKass+n logQ, (15) KEBEB=Kappcompound, (16) 1/F0−F=1/F0 KLBQ+1/F0 , (17) γ/CF =KSCn−γ, where γ = [(F0 − F)/F0], and CF is denoted as the concentration of sample alone.
# Additionally, the intensity of bovine serum albumin was monitored at 350 nm (λex = 278 nm) during fluorescence titration. When increasing the sample concentrations, the BSA intensity diminishes dramatically owing to static quenching in the ground state. It is noted that the fluorophores of BSA are not clearly exposed to a shift in polarity. […] Additionally, the Stern–Volmer equations (12)-(13) were employed to analyze the data (Figure S27 and Table 4). […] They are also much exceeded compared to the collision quenching constant value (2.0 × 10^10 mol^−1·s^−1). Therefore, it is assumed that the static quenching process was brought on by adduct construction between the compounds and bovine serum albumin rather than a dynamic collision. However, fluorescence spectroscopy is generally plagued by the inner filter effect (IFE), which disturbs the spectral analysis in particular. The energizing ray is attenuated due to the highly concentrated solution sample. As a result, strong fluorescence is only seen on surfaces facing the excitation beam. The fluorescence intensity is reduced as a result of an inner filter effect generated by some chemicals' absorption of the excitation or emission wavelength in the UV province. The observed values of the absorption wavelength of ligand (HL) and mixed ligand complexes (1a-2a) in the range of 335–337 nm, the bovine serum albumin excitation wavelength of 278 nm, and emission wavelength of 350 nm were used to assess the effect of IFE in this approach. Equation (12) is employed to solve IFE in this instance as well (Table 4). […]
SMILES,(inhibition %) (Shigella flexneri),diameter of the clear zone inhibition (Shigella flexneri),"Kass (BSA), SV method II (BSA)","n (BSA), SV method II (BSA)","KSV (BSA), SV method I (BSA)","P (BSA), ratio of fluorescence quantum efficiency (BSA)","Kq (BSA), SV method I (BSA)","∆Gb° (BSA), SV method II (BSA)"
"[O-]c1ccccc1N=Cc1ccc(N2CCOCC2)cc1.[O-]c1ccccc1N=Cc1ccc(N2CCOCC2)cc1.[Zn+2].c1ccc(-c2ccccn2)nc1 [(2a), [Zn(L)2(bpy)]]",45%,11 mm,52910 M⁻¹,1.041,48050 M⁻¹,0.348,4.805e+12 M⁻¹ s⁻¹,−26.9 kJM^−1
"Oc1ccccc1N=Cc1ccc(N2CCOCC2)cc1 [(HL), 2-(4-morpholinobenzylideneamino)phenol]",57%,14 mm,10620 M⁻¹,0.926,26390 M⁻¹,0.464,2.639e+12 M⁻¹ s⁻¹,−23.0 kJM^−1
"[Cu+2].[O-]c1ccccc1N=Cc1ccc(N2CCOCC2)cc1.[O-]c1ccccc1N=Cc1ccc(N2CCOCC2)cc1.c1ccc(-c2ccccn2)nc1 [(1a), [Cu(L)2(bpy)]]",45%,11 mm,87340 M⁻¹,1.059,86910 M⁻¹,0.252,8.691e+12 M⁻¹ s⁻¹,−28.2 kJM^−1
